The assay concerns the target T1, ACVR1 (Homo sapiens, UniProt Q04771).
T1 sequence (Q04771 21-509): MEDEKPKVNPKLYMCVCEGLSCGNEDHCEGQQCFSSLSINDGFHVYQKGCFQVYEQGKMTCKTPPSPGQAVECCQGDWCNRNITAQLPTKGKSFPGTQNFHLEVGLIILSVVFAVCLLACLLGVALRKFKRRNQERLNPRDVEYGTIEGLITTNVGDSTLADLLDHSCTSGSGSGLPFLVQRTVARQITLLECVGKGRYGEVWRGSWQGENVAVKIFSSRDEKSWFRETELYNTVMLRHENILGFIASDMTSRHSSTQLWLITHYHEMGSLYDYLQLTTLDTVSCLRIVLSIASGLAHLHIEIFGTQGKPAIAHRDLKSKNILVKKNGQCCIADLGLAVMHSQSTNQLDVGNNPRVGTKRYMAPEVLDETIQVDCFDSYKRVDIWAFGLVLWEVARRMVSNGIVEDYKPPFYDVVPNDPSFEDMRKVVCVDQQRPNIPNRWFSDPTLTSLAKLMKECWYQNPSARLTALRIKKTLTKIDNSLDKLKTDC
Kind of assay: ([…] Å) of the ACVR1-FKBP12 complex; IC50 from cellular NanoBRET target engagement (HEK-293). Format: cell-based. (In general: Bioluminescence resonance energy transfer reports proximity on the nanometre scale.)

`CCNc1cc(O)c2c(c1)/C=C/C[C@H](O)[C@H](O)C(=O)/C=C\[C@@H](C)[C@H](C)OC2=O` [E6201, (3S,4R,5Z,8S,9S,11E)-14-(ethylamino)-8,9,16-trihydroxy-3,4-dimethyl-3,4,9,19-tetrahydro-1H-2-benzoxacyclotetradecine-1,7 (8H)-dione] registered an IC50 of around 250 nM.

One may read the IC50 as the concentration that gives 50% inhibition. High values mean weaker potency in that assay, low ones greater potency in that assay.

For the origin of these results see paper PMC7105820, “Mutant ACVR1 Arrests Glial Cell Differentiation to Drive Tumorigenesis in Pediatric Gliomas” (Cancer Cell, 2020).
